Tests used:
[1] = biological target: T1, FLT3-ITD (Homo sapiens, UniProt P36888); assay: FLT3-ITD biochemical kinase assay (AlphaScreen)
T1 construct: FLT3-ITD; Invitrogen #PV6190
T1 sequence (P36888 1-993): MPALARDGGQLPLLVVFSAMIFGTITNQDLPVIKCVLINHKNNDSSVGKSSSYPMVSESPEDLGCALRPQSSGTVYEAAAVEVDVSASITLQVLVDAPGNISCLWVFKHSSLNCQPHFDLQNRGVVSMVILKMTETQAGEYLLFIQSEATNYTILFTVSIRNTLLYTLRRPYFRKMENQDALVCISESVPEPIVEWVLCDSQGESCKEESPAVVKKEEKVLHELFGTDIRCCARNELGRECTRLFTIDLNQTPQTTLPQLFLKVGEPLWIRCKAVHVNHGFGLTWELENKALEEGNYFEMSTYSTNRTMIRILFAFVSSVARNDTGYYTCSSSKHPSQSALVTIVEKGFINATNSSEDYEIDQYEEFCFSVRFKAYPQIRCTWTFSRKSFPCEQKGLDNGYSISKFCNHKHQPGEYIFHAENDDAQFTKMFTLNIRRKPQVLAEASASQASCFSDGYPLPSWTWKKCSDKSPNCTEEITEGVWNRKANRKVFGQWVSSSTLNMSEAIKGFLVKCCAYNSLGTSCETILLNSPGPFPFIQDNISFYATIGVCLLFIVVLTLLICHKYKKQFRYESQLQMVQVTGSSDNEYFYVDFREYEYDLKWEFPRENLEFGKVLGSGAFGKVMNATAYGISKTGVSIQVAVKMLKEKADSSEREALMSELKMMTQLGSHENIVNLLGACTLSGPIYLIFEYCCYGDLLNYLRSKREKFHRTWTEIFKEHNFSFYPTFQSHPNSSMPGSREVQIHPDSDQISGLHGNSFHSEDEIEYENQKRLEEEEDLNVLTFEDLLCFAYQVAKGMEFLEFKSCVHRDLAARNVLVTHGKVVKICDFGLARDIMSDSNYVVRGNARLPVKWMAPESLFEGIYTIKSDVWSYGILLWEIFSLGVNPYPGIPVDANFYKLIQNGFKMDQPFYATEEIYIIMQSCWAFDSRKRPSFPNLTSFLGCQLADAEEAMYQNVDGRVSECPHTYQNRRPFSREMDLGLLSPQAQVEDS
Method in brief: (§1)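 IC50 values reflect loss of AlphaScreen proximity signal (excitation 680 nm, emission 580 nm) from tyrosine phosphorylation of a biotinylated poly(Glu4-Tyr) substrate at 30 nM. ATP was 10 μM for the D835Y mutant and 100 μM for ITD. Detection used PY20 acceptor beads.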

[2] = biological target: T2, FLT3-D835Y (Homo sapiens, UniProt P36888, D835Y); assay: FLT3-D835Y biochemical kinase assay (AlphaScreen)
T2 construct: purchased Invitrogen PV3967
T2 sequence (P36888 27-993 D835Y): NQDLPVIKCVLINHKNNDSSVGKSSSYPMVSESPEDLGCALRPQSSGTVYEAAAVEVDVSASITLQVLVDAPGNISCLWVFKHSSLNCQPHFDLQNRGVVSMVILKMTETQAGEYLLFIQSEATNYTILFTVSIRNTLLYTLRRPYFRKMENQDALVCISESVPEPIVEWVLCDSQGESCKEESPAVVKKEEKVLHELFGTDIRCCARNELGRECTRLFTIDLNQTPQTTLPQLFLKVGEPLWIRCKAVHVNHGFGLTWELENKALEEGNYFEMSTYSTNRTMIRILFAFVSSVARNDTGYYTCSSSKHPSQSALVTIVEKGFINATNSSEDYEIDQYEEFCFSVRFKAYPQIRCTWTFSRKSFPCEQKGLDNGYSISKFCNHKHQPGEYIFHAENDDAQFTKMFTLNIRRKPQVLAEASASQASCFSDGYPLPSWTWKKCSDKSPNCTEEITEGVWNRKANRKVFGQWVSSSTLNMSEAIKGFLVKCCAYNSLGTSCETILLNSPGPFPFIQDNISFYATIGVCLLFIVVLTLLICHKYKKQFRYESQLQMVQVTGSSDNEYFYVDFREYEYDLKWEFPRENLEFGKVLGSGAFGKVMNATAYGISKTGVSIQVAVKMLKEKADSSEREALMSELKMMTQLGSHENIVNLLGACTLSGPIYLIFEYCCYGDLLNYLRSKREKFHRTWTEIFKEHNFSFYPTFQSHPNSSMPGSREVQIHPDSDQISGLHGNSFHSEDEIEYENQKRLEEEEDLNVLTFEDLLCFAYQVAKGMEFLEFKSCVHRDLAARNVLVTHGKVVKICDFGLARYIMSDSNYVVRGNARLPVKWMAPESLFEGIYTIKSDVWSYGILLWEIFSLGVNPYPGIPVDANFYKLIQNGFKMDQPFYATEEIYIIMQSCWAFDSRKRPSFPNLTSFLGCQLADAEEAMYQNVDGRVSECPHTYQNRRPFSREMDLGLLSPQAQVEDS
Method in brief: as §1

| Structure (SMILES) | IC50 [1] [µM] | IC50 [2] [µM] |
| --- | --- | --- |
| O=S1(=O)CCCCN1c1cc(-c2cnc3[nH]cc(-c4ccc5ncn(C6CCCNC6)c5c4)c3n2)ccn1 (stereo not shown) [P-310, 2-[4-[7-[3-(3-piperidyl)benzimidazol-5-yl]-5H-pyrrolo[2,3-b]pyrazin-2-yl]-2-pyridyl]thiazinane 1,1-dioxide] | 0.0001 to 1 | 0.0001 to 1 |
| CN1CCN(c2ccc(-c3cnc4[nH]cc(-c5ccc6ncn(C7CCCNC7)c6c5)c4n3)cc2)CC1 (stereo not shown) [P-344, 2-[4-(4-methylpiperazin-1-yl)phenyl]-7-[3-(3-piperidyl)benzimidazol-5-yl]-5H-pyrrolo[2,3-b]pyrazine] | 0.0001 to 1 | 0.0001 to 1 |
| CN1CCN(c2ccc(-c3cnc4[nH]cc(-c5ccc6ncn(C(C)(C)C)c6c5)c4n3)cc2)CC1 [P-341, 7-(3-tert-butylbenzimidazol-5-yl)-2-[4-(4-methylpiperazin-1-yl)phenyl]-5H-pyrrolo[2,3-b]pyrazine] | 0.0001 to 1 | 0.0001 to 1 |
| COc1cc(C#Cc2cnc3[nH]cc(-c4ccc5ncn(C(C)(C)C)c5c4)c3n2)ccn1 [P-279, 7-(1-(tert-butyl)-1H-benzo[d]imidazol-6-yl)-2-((2-methoxypyridin-4-yl)ethynyl)-5H-pyrrolo[2,3-b]pyrazine] | 0.0001 to 1 | 0.0001 to 1 |
| CC(C)(C)n1cnc2ccc(-c3c[nH]c4ncc(-c5ccnc(C#N)c5)cc34)cc21 [P-291, 4-[3-(3-tert-butylbenzimidazol-5-yl)-1H-pyrrolo[2,3-b]pyridin-5-yl]pyridine-2-carbonitrile] | 0.0001 to 1 | 0.0001 to 1 |

Other lines, results leading:

| IC50 [1] [µM] | IC50 [2] [µM] | Structure (SMILES) |
| --- | --- | --- |
| 0.0001 to 1 | 0.0001 to 1 | c1cc(N2CCOCC2)ncc1-c1cnc2[nH]cc(-c3ccc4ncn(C5CCCNC5)c4c3)c2c1 (stereo not shown) [P-321, 4-[5-[3-[3-(3-piperidyl)benzimidazol-5-yl]-1H-pyrrolo[2,3-b]pyridin-5-yl]-2-pyridyl]morpholine] |
| 0.0001 to 1 | 0.0001 to 1 | c1cc(N2CCCCC2)ncc1-c1cnc2[nH]cc(-c3ccc4ncn(C5CCCNC5)c4c3)c2n1 (stereo not shown) [P-348, 7-[3-(3-piperidyl)benzimidazol-5-yl]-2-[6-(1-piperidyl)-3-pyridyl]-5H-pyrrolo[2,3-b]pyrazine] |
| 0.0001 to 1 | 0.0001 to 1 | Cc1ncc(C#Cc2cnc3[nH]cc(-c4ccc5ncn(C(C)(C)C)c5c4)c3n2)cn1 [P-284, 7-(3-tert-butylbenzimidazol-5-yl)-2-[2-(2-methylpyrimidin-5-yl)ethynyl]-5H-pyrrolo[2,3-b]pyrazine] |

From patent US10160755B2 (Plexxikon Inc., priority 2015, dated 2018)
